The record followed here is US8652444B2, “Oral compositions containing biphenol antibacterial compounds” (Colgate-Palmolive Company, priority 2004, dated 2014).

Broadly, the MIC50 is the lowest concentration that inhibits either 50% of growth or 50% of the strains tested, depending on the study.

Assay type in all cases: cell-based
One test deals with A. actino. Briefly: MIC50 against bacteria. Conditions: unit assumed. As for the experimental part: (§1) MIC50 values against a variety of bacteria are measured for the dipropyl and dibutyl derivatives and compared to those for triclosan.
Another test relates to B. cereus. Briefly: MIC50 against bacteria. Conditions: unit assumed. As for the experimental part:
as §1

The next test relates to B. subtilis. Description: MIC50 against bacteria. Particulars: unit assumed. On the procedure: as §1
The next test relates to E. corrodens. Briefly: MIC50 against bacteria. Particulars: unit assumed. On the procedure:
as §1

The subject of another test is F. nucleatum. Briefly: MIC50 against bacteria. Conditions: unit assumed. As for the experimental part:
as §1

In another test the test system is M. catarrhalis. Briefly: MIC50 against bacteria. Conditions: unit assumed. As for the experimental part: as §1
The subject of another test is P. gingivalis. Description: MIC50 against bacteria. Conditions: unit assumed. As for the experimental part: as §1
The test system of a further test is P. intermedia. Description: MIC50 against bacteria. Particulars: unit assumed. On the procedure:
as §1

Another test deals with P. nigresc. Description: MIC50 against bacteria. Particulars: unit assumed. As for the experimental part:
as §1

A further test concerns S. aureus. Description: MIC50 against bacteria. Particulars: unit assumed. As for the experimental part:
as §1

For a further test, the system named is S. gordonii. Briefly: MIC50 against bacteria. Particulars: unit assumed. On the procedure:
as §1

Another test concerns S. mutans. Description: MIC50 against bacteria. Particulars: unit assumed. On the procedure: as §1
Test [1] concerns staphylococcus, streptococcus, and bacillus bacteria. Description: MIC50 against a variety of bacteria, comparison. Conditions: against a number of staphylococcus, streptococcus, and bacillus bacteria of Table I; comparable to triclosan. On the procedure:
as §1

A further test has as its system certain oral bacteria. Briefly: MIC50 against certain oral bacteria, comparison. On the procedure: as §1

Molecules are shown by their SMILES. In brackets after ≈: the same amount, converted by molar mass. A value given as a limit tells only on which side of the number the result lay.

Consider `CCCCc1ccc(O)c(-c2cc(CCCC)ccc2O)c1` [dibutyl derivative, 5,5′-dibutyl-2,2′-dihydroxy-1,1′-biphenyl], for which the MIC50 is over 500 µg/mL in the test with A. actino.; 31.3 µg/mL (≈ 105 µM) against B. cereus; 7.8 µg/mL (≈ 26.1 µM) against B. subtilis; 0.5 µg/mL (≈ 1.68 µM) against E. corrodens; over 500 µg/mL with F. nucleatum; 15.6 µg/mL (≈ 52.3 µM) against M. catarrhalis. In addition, the MIC50 is 2 µg/mL (≈ 6.7 µM) against P. gingivalis; 2 µg/mL (≈ 6.7 µM) in the test with P. intermedia; 3.9 µg/mL (≈ 13.1 µM) with P. nigresc.; 7.8 µg/mL (≈ 26.1 µM) in the test with S. aureus; 31.3 µg/mL (≈ 105 µM) against S. gordonii; 3.9 µg/mL (≈ 13.1 µM) in the test with S. mutans. Further, the “MIC50 relative to the dipropyl derivative” value in test [1] is listed as “over an order of magnitude less than that of the dipropyl derivative”. Further, the “MIC50 relative to an analogous compound containing propyl groups” value against certain oral bacteria is given as “lower”.

Take `CCCc1ccc(O)c(-c2cc(CCC)ccc2O)c1` [dipropyl derivative, 5,5′-propyl-2,2′-dihydroxy-1,1′-biphenyl]: the MIC50 in the test on A. actino. was over 500 µg/mL; in the test with B. cereus, over 500 µg/mL; in the test with B. subtilis, over 500 µg/mL; in the test on E. corrodens, 1 µg/mL (≈ 3.7 µM); in the test with F. nucleatum it was over 500 µg/mL; in the test on M. catarrhalis it was 7.8 µg/mL (≈ 28.8 µM). The MIC50 against P. gingivalis was 3.9 µg/mL (≈ 14.4 µM); against P. intermedia it was 2 µg/mL (≈ 7.4 µM); in the test with P. nigresc. it was 7.8 µg/mL (≈ 28.8 µM); in the test with S. aureus, over 500 µg/mL; against S. gordonii, over 500 µg/mL; with S. mutans it was over 500 µg/mL.

Take `Oc1cc(Cl)ccc1Oc1ccc(Cl)cc1Cl` [triclosan]: the MIC50 in the test with A. actino. is 0.125 µg/mL (≈ 0.432 µM); in the test with B. cereus it was 15.6 µg/mL (≈ 53.9 µM); against B. subtilis it was 2 µg/mL (≈ 6.91 µM); in the test with E. corrodens, under 0.001 µg/mL; against F. nucleatum, 1 µg/mL (≈ 3.45 µM); with M. catarrhalis it was under 0.001 µg/mL. In addition, the MIC50 came to 0.5 µg/mL (≈ 1.73 µM) against P. gingivalis; 1 µg/mL (≈ 3.45 µM) against P. intermedia; 3.9 µg/mL (≈ 13.5 µM) with P. nigresc.; 2 µg/mL (≈ 6.91 µM) against S. aureus; 7.8 µg/mL (≈ 26.9 µM) in the test with S. gordonii; 7.8 µg/mL (≈ 26.9 µM) against S. mutans.
